Paper PMC8894198, “Biosynthetic Microcin J25 Exerts Strong Antibacterial, Anti-Inflammatory Activities, Low Cytotoxicity Without Increasing Drug-Resistance to Bacteria Target” (Frontiers in Immunology, 2022)
Converted amounts (≈) assume the structure as drawn. Where a SMILES comes first, the peptide text is derived from it. Bridges are numbered along the chain shown (N, C = ends).

Columns and labels:
[1] = tested on: E. coli BRO 477; type: cell-based; details: source broiler stool
Experimental: (§1) The minimum inhibitory concentration (MIC) refers to the lowest concentration that can produce a significant hindrance to bacterial growth in a drug sensitivity test by adopting a broth dilution, with certain refinements and modifications based on the previous description ([25], [26]). In short, MccJ25 was dissolved in sterilized distilled water (SDW), serial 2-fold dilutions were prepared in Mueller-Hinton broth (MHB) through a 96-well microtiter plate, and the final concentration of MccJ25 was maintained in the range of 0.003125 to 256 μg/mL. Then, 2 μL of standard and clinically relevant overnight broth cultures of bacteria were inoculated into each well at a concentration of 5 × 10^6 CFU/mL. Microtiter plates were incubated at 37°C for one full day. Two groups were set up: positive (medium with inoculum) and negative (medium only) controls. The minimum bactericidal concentration (MBC) was measured in LB medium and refers to the first drug dilution value at which the initial bacterial concentration was reduced by 99.99%. The final analysis was determined by the results of three replicated and independent experiments. To further assess and clarify the antimicrobial activity of MccJ25, the protective ability against E. coli adhesion, live/dead assay, and killing curve were performed, the detailed methods were provided in Supplementary Materials .

[2] = tested on: E. coli K88; type: cell-based
Experimental: as §1

[3] = tested on: E. coli K99; type: cell-based
Experimental: as §1

[4] = tested on: E. coli K88; type: cell-based; details: sub-MIC levels, 25-d passage period; six biological replicates
Experimental: To quantify the production status of the bacteria, the bacterial density was measured after incubating for 24 h. Cultures with the second highest concentration allowed to grow (OD600 ≥ 2) were diluted 1:100 with MccJ25 MHB at different concentrations than those described above. Cultures that grew above the indicated MIC levels were plated on LB agar plates, and their MIC levels were determined by the broth macrodilution method.

[5] = tested on: E. coli CVCC1515; experiment: MIC/MBC broth dilution, standard strain; type: cell-based
Experimental: as §1

[6] = tested on: Shigella flexneri CMCC51571; experiment: MIC/MBC broth dilution, standard strain; type: cell-based; details: LB medium, 99.99% reduction; three independent experiments
Experimental: as §1

[7] = tested on: E. coli 1499; experiment: MIC/MBC broth dilution, standard strain; type: cell-based
Experimental: as §1

[8] = tested on: E. coli ATCC25922; experiment: MIC/MBC broth dilution, standard strain; type: cell-based
Experimental: as §1

[9] = tested on: Salmonella enteritidis CMCC50336; experiment: MIC/MBC broth dilution, standard strain; type: cell-based
Experimental: as §1

[10] = tested on: E. coli O111:B4 LPS-challenged BALB/c mice; experiment: LPS-challenged mice experiment (septicemia model); type: in vivo
Experimental: Female BALB/c mice (5-6 weeks) was provided by HFK Bioscience Co. (Beijing, China). All mice were raised in laminar flow cabinets and housed individually in a room with strictly controlled temperature and humidity, where a 12-hour light and 12-hour dark cycle was implemented, and mice had free access to food and water throughout the experimental period.
E. coli O111:B4 LPS (Sigma-Aldrich) at a concentration of 15 mg/L was injected into the peritoneal cavity of female BALB/c mice (age 7 weeks, weight 15 ± 0.5 g), and approximately 30 min after the challenge of E. coli O111:B4 LPS, MccJ25 was orally gavaged to the mice at a concentration of 4.55 or 9.1 mg per kg body weight (BW). The concentrations of MccJ25 were selected based on our previous study ([24]). Mice were followed for 72 h to test the survival rate of mice that were later sacrificed. However, for LPS treated mice, when the lifespan of the mice was around 50%, the mice were sacrificed. The serum from mice were obtained. The lung, liver, spleen, jejunum, and ileum were harvested, kept in liquid nitrogen immediately, stored at -80°C until analysis. For histopathological assessment, tissues and organs were fixed using 4% paraformaldehyde, hematoxylin eosin (H&E) was applied to examine the histological and pathological changes according to the standard protocol as described previously ([24]).
In the LPS-challenged mice experiment, lifespan of mice was monitored for 72 h. In the cocktail of MDR E. coli strains infection experiment, BW change, rectal temperature, diarrhea scores and fecal image, or survival rate were measured. For the diarrhea score evaluation producer was referred to previous study ([24]).
The concentrations of tumor necrosis factor-α (TNF-α), interleukin-6 (IL-6), IL-4, interferon (IFN)-γ, and nitric oxide (NO) in serum were measured. In addition, TNF-α and NO levels were also measured in the supernatant of RAW264.7 cells. ELISA was performed using a commercial ELISA kit (eBioscience, San Diego, USA). LPS levels in plasma were analyzed using the QCL-1000 kit (Xiamen, China) based on the manufacturer’s standards. On the day of sacrifice, eyes were extracted with ethylenediaminetetraacetic acid (EDTA), and blood was collected into clean test tubes. Peripheral hemograms and white blood cells (WBCs) were analyzed using a Coulter LH755 hematology analyzer. The levels of serum D-lactate were measured using ELISA kit (Jiancheng, Nanjing, China) according to the manufacturer’s protocols.
The extent and mRNA expression levels of TNF-α, IL-6, IL-10, IL-1β, IFN-γ, and TLR4, and NF-κB in each body part of the jejunum, ileum, colon, and spleen and in RAW264.7 cells were clarified by RT–PCR as previously described ([31]). Primers for TNF-α, IL-6, IL-10, IL-1β, IFN-γ, TLR4, and NF-κB are described in Table S1 . The specific assay steps were as follows: total RNA was extracted from the jejunum, ileum, spleen, and cells by TRIzol reagent (Invitrogen, Carlsbad, CA). Combined with gel electrophoresis and a NanoDrop 2000 spectrophotometer (Thermo Fisher Scientific, Wilmington, DE), the quality and quantity of total RNA were determined. […] Then the 2^-ΔΔCt method was used for the next step of analysis.
Frozen tissue samples and fresh cells were homogenized in RIPA lysis buffer containing protease inhibitors (Applygen, Beijing, China). Protein levels were determined using a BCA protein assay kit (Thermo Fisher Scientific, Rockford, IL). Thirty micrograms of tissue and cell protein samples were electrophoresed on SDS polyacrylamide gels and electrotransferred to PVDF membranes (Millipore). […]

[11] = LB medium, 99.99% reduction, three independent experiments
[12] = broth dilution in MHB, 37°C, one day, three independent experiments

## CC[C@H](C)[C@H](NC(=O)CNC(=O)[C@@H](NC(=O)[C@H](Cc1ccccc1)NC(=O)[C@H](Cc1ccc(O)cc1)NC(=O)[C@@H]1CCC(=O)NCC(=O)NCC(=O)N[C@@H](C)C(=O)NCC(=O)N[C@@H](Cc2c[nH]cn2)C(=O)N[C@@H](C(C)C)C(=O)N2CCC[C@H]2C(=O)N1)C(C)C)C(=O)NCC(=O)N[C@H](C(=O)N1CCC[C@H]1C(=O)N[C@H](C(=O)N[C@@H](CO)C(=O)N[C@@H](Cc1ccccc1)C(=O)N[C@@H](Cc1ccc(O)cc1)C(=O)NCC(=O)O)[C@@H](C)CC)[C@@H](C)O [MccJ25, microcin J25] (GGAGHVPEYFVGIGTPISFYG-OH; lactam N-8 (inferred); C-terminus assumed)
[1]; [11]
  MBC: 1.000 µg/mL (≈ 0.475 µM)
[1]; broth dilution in MHB, 37°C, three independent experiments
  MIC: 0.500 µg/mL (≈ 0.237 µM)
[1]; ratio
  MIC/MBC: 0.500
[2]; [11]
  MBC: 0.500 µg/mL (≈ 0.237 µM)
[2]; [12]
  MIC: 0.250 µg/mL (≈ 0.119 µM)
[2]; ratio
  MIC/MBC: 0.500
[3]; [11]
  MBC: 0.250 µg/mL (≈ 0.119 µM)
[3]; [12]
  MIC: 0.030 µg/mL (≈ 0.0142 µM)
[3]; ratio
  MIC/MBC: 0.120
[4]
  resistant mutants during serial passage: No resistant mutants were detected
[5]; [11]
  MBC: 2.000 µg/mL (≈ 0.949 µM)
[5]; [12]
  MIC: 0.500 µg/mL (≈ 0.237 µM)
[5]; ratio
  MIC/MBC: 0.250
[6]
  MBC: 0.500 µg/mL (≈ 0.237 µM)
[7]; [11]
  MBC: 1.000 µg/mL (≈ 0.475 µM)
[7]; [12]
  MIC: 0.400 µg/mL (≈ 0.19 µM)
[7]; ratio
  MIC/MBC: 0.400
[8]; [11]
  MBC: 0.500 µg/mL (≈ 0.237 µM)
[8]; [12]
  MIC: 0.125 µg/mL (≈ 0.0593 µM)
[8]; ratio
  MIC/MBC: 0.250
[9]; [11]
  MBC: 4.000 µg/mL (≈ 1.9 µM)
[9]; [12]
  MIC: 2.000 µg/mL (≈ 0.949 µM)
[9]; ratio
  MIC/MBC: 0.500
[10]; 4.55 mg/kg BW
  jejunum and ileum histopathology: moderate villus damage and epithelial cell sloughing
[10]; 9.1 mg/kg BW, compared with the control group
  jejunum and ileum histopathology: few changes in the villi, crypts and intestinal mucosa
[10]; ELISA, after LPS treatment
  serum levels of TNF-α, IL-6 and NO: showed a decreasing trend
[10]; H&E
  lung histopathology: partially reverse swelling and lung damage
[10]; H&E, MccJ25 30 min after LPS
  liver and spleen histopathology: substantially reduced the degree of edema and degradation of cytoplasmic proteins
[10]; different concentrations of MccJ25 vs LPS group
  WBC count: significantly reduce the counts of leukocytes
[10]; ileum, colon, or spleen, q-PCR
  TNF-α, TLR4 and IL-6 mRNA expression: significantly decreased
[10]; vs mice treated with LPS only
  plasma LPS concentrations: significantly decreased
[10]; western blot, vs LPS-infected group
  phosphorylated NF-κB, p38 MAPK and IκB protein expression: significantly decreased
